The structures appear in SMILES notation.

From patent EP4600260A1, “KERATIN YK93-4, AND PREPARATION METHOD THEREFOR, PHARMACEUTICAL COMPOSITION THEREOF AND USE THEREOF” (INSTITUTE OF MATERIA MEDICA, CHINESE ACADEMY OF MEDICAL …, priority 2022, dated 2024) come the findings set out here.

The data set has as its system EL-4 lymphoma. Particulars: cyclophosphamide 100 mg/kg, intraperitoneal, single; routine blood analysis, P<0.05.

Procedure: Preparation of experimental animals: The experimental animals were adapted to the experimental environment (temperature 22°C±2°C, relative humidity 50%±2%) for 1 day.
Subcutaneous inoculation of EL-4 cell suspension to replicate a mouse lymphoma model: The EL-4 tumor tissue was ground into a suspension using a glass homogenizer, the tumor suspension was aspirated with a syringe, the number of live cells was calculated, the cell concentration was adjusted to 2.0*10^6/ml with physiological saline, and then the suspension was injected into the left armpit of mice with 0.2 ml/mouse. […] On the day of treatment, weight was measured, 20µl of blood was obtained from the orbital blood and the routine blood analysis was performed. The tumor blocks were stripped, weighed and photographed, and the tumor suppression rate was calculated.
The tumor suppression rate [(The average weight of the tumor in the normal control group - the average weight of the tumor in the experimental group) / The average weight of the tumor in the normal control group × 100 %] and average value, standard deviation and standard errors of tumor weight were calculated. The data from the groups were compared with each other by T.TEST, and P<0.05 was considered as a significant difference.

Take `O=P1(N(CCCl)CCCl)NCCCO1` (stereo not shown) [cyclophosphamide, Cyclophosphamide]: the “number of leukocytes, lymphocytes, monocytes, and neutrophils” value is listed as “significantly reduced”.
